Laboratory results taken from ChEMBL document CHEMBL1142329, “Synthesis and antispasmodic activity of lidocaine derivatives endowed with reduced local anesthetic action” (Bioorg Med Chem Lett, 2008).

Experiments:
[1] = test system: Rattus norvegicus; experiment: Anesthetic activity in rat at 0.5 uMol/site assessed as duration of full recovery of sensory block; format: functional
[2] = test system: Rattus norvegicus; experiment: Anesthetic activity in rat at 4.0 uMol/site assessed as duration of full recovery of sensory block; format: functional
[3] = test system: Rattus norvegicus; experiment: Anesthetic activity in rat at 1.0 uMol/site assessed as duration of full recovery of sensory block; format: functional
[4] = test system: Rattus norvegicus; experiment: Anesthetic activity in rat at 2.0 uMol/site assessed as duration of full recovery of sensory block; format: functional
[5] = test system: Ileum; experiment: Antispasmodic activity in guinea pig ileum assessed as inhibition of histamine-induced contraction; format: functional, tissue-based; conditions: Cavia porcellus
[6] = Activity at sodium channel assessed as blockade of sodium current
[7] = test system: Ileum; experiment: Antispasmodic activity in guinea pig ileum assessed as inhibition of allergen-induced contraction; format: functional, tissue-based; conditions: Cavia porcellus

| SMILES | Time [1] [min] | Time [2] [min] | Time [3] [min] | Time [4] [min] | IC50 [5] [µM] | IC50 [6] [µM] | IC50 [7] [µM] |
| --- | --- | --- | --- | --- | --- | --- | --- |
| CCN(CC)CC(=O)Nc1cc(C)cc(C)c1 | 44 | 181 | 91 | 134 | – | – | – |
| CCN(CC)CC(=O)Nc1ccccc1C(F)(F)F | 8 | 24 | 13 | 15 | 100 | 25400 | 50 |
| CCN(CC)CCC(=O)Nc1cccc(C)c1C | 22 | 139 | 49 | 91 | – | – | – |
| CCN(CC)CC(=O)Nc1ccc(C)cc1C | 17 | 92 | 32 | 63 | 310 | – | 190 |
| CCN(CC)CC(=O)Nc1cccc(C(F)(F)F)c1 | 17 | 18 | 19 | 18 | – | – | – |
| CCN(CC)CC(=O)Nc1cc(C)ccc1C | 19 | 54 | 28 | 40 | 140 | – | 120 |
| CCN(CC)CCC(=O)Nc1ccc(C)c(C)c1 | 26 | 107 | 48 | 80 | – | – | – |
| CCN(CC)CCC(=O)Nc1cc(C)cc(C)c1 | 88 | 377 | 118 | 240 | – | – | – |
| CCN(CC)CCC(=O)Nc1c(C)cccc1C | 72 | 311 | 107 | 194 | – | – | – |
| CCN(CC)CC(=O)Nc1ccc(C)c(C)c1 | 11 | 55 | 20 | 32 | – | – | – |
| CCN(CC)CC(=O)Nc1ccccc1C | 17 | 63 | 28 | 48 | 160 | – | 160 |
| CCN(CC)CC(=O)Nc1c(C)cccc1C [LIDOCAINE] | 37 | 164 | 74 | 103 | 1410 | 180 | 1430 |
| CCN(CC)CCC(=O)Nc1ccc(C)cc1C | 35 | 239 | 89 | 166 | – | – | – |
| CCN(CC)CC(=O)Nc1ccc(C(F)(F)F)cc1 | 19 | 21 | 19 | 19 | – | – | – |
| CCN(CC)CCC(=O)Nc1cc(C)ccc1C | 22 | 101 | 47 | 72 | – | – | – |
| CCN(CC)CC(=O)Nc1cccc(C)c1C | 7 | 34 | 16 | 25 | 380 | – | 330 |
